≈ marks a conversion by molar mass, not a printed value.
What was measured:
T. gondii [1] = system: T. gondii; set-up: method as in Zhang J. et al., 2019; settings: 50 mg/kg.bw; ref Zhang J. et al., 2019; cited from earlier work
T. gondii [2] = settings: ref Zhang J. et al., 2019; cited from earlier work
T. gondii tachyzoites [3] = experiment: Monodansylcadaverine (MDC) staining of autophagosomes; assay type: cell-based, Toxoplasma gondii
Experimental: For each sample, approximately 1 × 10^5 tachyzoites were treated with licarin-B (18 μg/mL) in DMEM for 4, 8, or 16 h at 37°C; licarin-B (18, 27, or 36 μg/mL) in DMEM for 8 h at 37°C; or no drug (as a control) in DMEM. Then, the samples were washed with PBS (pH 7.4), suspended in monodansylcadaverine (MDC) working solution (100 μM) at 37°C for 1 h after centrifugation, and washed twice with PBS. The tachyzoites were resuspended in 500 μL of PBS, and the fluorescence in each group was visualized by laser scanning confocal microscopy.

[4] = system: T. gondii tachyzoites in HFFs; experiment: Transmission electron microscopy of tachyzoites; assay type: cell-based, Toxoplasma gondii; settings: 18 μg/mL
Experimental: For transmission electron microscopy (TEM) analysis, HFFs were seeded to confluence in T25 flasks and infected with 1.5 × 10^6 T. gondii tachyzoites for 8 h. After the addition of 18 μg/mL licarin-B, the cells were cultured for 4, 8, or 16 h, digested with TrypLE Express for 2 min, washed twice with PBS, fixed with 2.5% glutaraldehyde at 4°C for 12 h, washed with PBS to remove glutaraldehyde and post-fixed with 1% osmium acid solution for 1.5 h in the dark. The samples were then washed with PBS, dehydrated in a graded alcohol series, dehydrated in acetone and embedded in Epon. Ultrathin sections were stained with uranyl acetate and lead citrate and observed under a transmission electron microscope (Tecnai Spirit Bio-TWIN, Thermo Fisher Scientific, FEI, United States).

[5] = system: T. gondii tachyzoites (strain RH) in HFFs; experiment: In vitro screening of anti-T. gondii activity (Giemsa staining, qPCR); assay type: cell-based, Toxoplasma gondii; settings: 24 h
Experimental: Human foreskin fibroblasts were seeded in 6-well plates and infected with 3 × 10^4 fresh T. gondii tachyzoites. After 8 h, the natural compounds in DMEM supplemented with 1% FBS were added. Sulfadiazine and pyrimethamine were included as positive drug controls. After incubation for 24 h, the cells were washed twice with PBS, stained with Giemsa, and observed by light microscopy. In addition, total DNA was isolated from the cells using DNAiso Reagent (Takara), and a 529-bp repeat element was amplified by quantitative polymerase chain reaction (qPCR) with the following primers: Tox-F (5′-AGGAGAGATATCAGGACTGTAG-3′), Tox-R (5′-GCGTCGTCTCGTCTAGATCG-3′), and the Taqman probe Tox-TP (6-Fam CCGGCTTGGCTGCTTTTCCT BHQ1), as described in a previous study ([Zhang J.L. et al., 2019]). The inhibition rates against T. gondii proliferation for the natural compounds at concentrations with no HFF toxicity were calculated, and the inhibition rate in each treatment group was presented as the % of the control group. The experiment was repeated three times.

[6] = system: T. gondii tachyzoite intracellular proliferation in HFFs; experiment: Anti-proliferation activity of licarin-B (qPCR); assay type: cell-based, Toxoplasma gondii; settings: 24 h
Experimental: DMEM without drugs was used as a parasite control. […] After 24 h, the cells were washed twice with PBS, and total genomic DNA from the cells was obtained as described in a previous study ([Zhang J.L. et al., 2019]). […] The results represent the means ± standard deviations (SD) from at least three independent experiments. The EC50 of licarin-B for tachyzoite growth inhibition was plotted as a function of the compound concentration via non-linear curve analysis using SPSS 19.0 software (SPSS Inc., Chicago, IL, United States). The results of the anti-invasion and anti-proliferation tests, the in vivo assays of the survival rate and parasite burden and data comparisons between the parasite control and treatment groups were statistically analyzed by one-way analysis of variance (ANOVA) using SPSS software.

T. gondii tachyzoites [7] = experiment: In vivo parasite burden in tissues and blood (qPCR); set-up: species or system BALB/c mice; settings: 50 mg/kg⋅bw, acutely infected mice
Experimental: To evaluate the therapeutic effect of licarin-B on acute infection, mice were infected intraperitoneally with 1 × 10^4 tachyzoites and then divided into three groups (six mice/group) for treatment with PBS (as a parasite control), licarin-B (50 mg/kg⋅bw), or a positive control drug, as described above ([Zhang J.L. et al., 2019]). The treatments were administered for 4 consecutive days, and then, the number of parasites in the tissue and blood samples were deduced from standard curves constructed using known numbers of tachyzoites, as previously described.

[8] = Dose safety assessment in vivo; settings: mice treated with the tested doses (25 or 50 mg/kg⋅bw) for 30 days
Experimental: Dose safety assessment in vivo was performed to determine safe doses of licarin-B, as previously described.

[9] = system: T. gondii invasion of HFFs; experiment: Anti-invasion assessment in vitro (qPCR); assay type: cell-based, Toxoplasma gondii; settings: 4.5–22.5 μg/mL, 2 h of infection
Experimental: Human foreskin fibroblasts were seeded in 6-well plates and incubated with different concentrations of licarin-B (4.5, 9, 13.5, 18, or 22.5 μg/mL), sulfadiazine (0.4 μg/mL, as a positive control) or without drugs in DMEM supplemented with 1% FBS and then infected with 3 × 10^6 fresh parasites per well. The anti-invasion capability of licarin-B was determined by qPCR after 2 h of infection, as described in a previous study ([Zhang J.L. et al., 2019]). Triplicate independent experiments were performed.

[10] = system: extracellular T. gondii tachyzoites; experiment: DAPI staining of the nucleus; assay type: cell-based, Toxoplasma gondii; settings: 18, 27, or 36 μg/mL for 16 h
Experimental: Extracellular parasites (1 × 10^5 per group) were incubated in DMEM with licarin-B (18, 27, or 36 μg/mL) or without any drug (as a control) for 16 h at 37°C. All the samples were stained with 4′,6-diamidino-2-phenylindole (DAPI) at 37°C for 10 min, and fluorescence intensity was observed by laser confocal microscopy.

[11] = system: extracellular T. gondii tachyzoites; experiment: MitoTracker Red CMXRos staining (mitochondrial membrane potential); assay type: cell-based, Toxoplasma gondii
Experimental: Extracellular parasites (1 × 10^5 per group) were incubated in DMEM with licarin-B (18 μg/mL) for 4, 8, or 16 h at 37°C; with licarin-B (18, 27, or 36 μg/mL) for 8 h at 37°C; or without any drug (as a control). Then, all the samples were stained with the MitoTracker Red CMXRos probe (50 nM, Invitrogen, United States) for 20 min. ([Zhang J.L. et al., 2019]). The fluorescence intensity was observed by laser confocal microscopy (ZEISS LSM-800, Jena, Germany).

T. gondii tachyzoites [12] = experiment: In vivo survival of acutely infected mice; set-up: species or system BALB/c mice; settings: 30-day test period
Experimental: The therapeutic effect on acute infection was evaluated as described by Zhang; female BALB/c mice were divided into four groups consisting of 10 mice each, and each mouse was injected with 2 × 10^3 tachyzoites by intraperitoneal injection. Then, the mice were treated with licarin-B (25 or 50 mg/kg⋅bw), the positive drugs (100 mg/kg⋅bw sulfadiazine, 50 mg/kg⋅bw pyrimethamine, or 15 mg/kg⋅bw folinic acid) or PBS (as control) ([Si et al., 2018]). Positive drugs were administered by oral administration, and licarin-B was administered by intraperitoneal injection. […] The survival times of the infected mice and the number of deaths were monitored and recorded twice daily for 30 days.

[13] = system: extracellular T. gondii tachyzoites; experiment: Flow cytometry analysis of T. gondii survival (annexin V-PE / 7-AAD); assay type: cell-based, Toxoplasma gondii; settings: 24 h
Experimental: Approximately 1 × 10^6 extracellular tachyzoites were incubated with licarin-B (18 or 36 μg/mL) in DMEM or with no drug as a control for 24 h, followed by centrifugation at 1,500 × g for 10 min. The samples were washed with PBS and suspended in 100 μL of binding buffer with 5 μL of annexin V-PE and 5 μL of 7-AAD dye in the dark for 20 min at 37°C. Double mixtures were acquired and analyzed by flow cytometry (BD FACSVerse, United States) ([Giovati et al., 2018]). The experiment was repeated three times.

C=CCc1cc(OC)c(O[C@@H](C)[C@H](O)c2ccc(O)c(OC)c2)c(OC)c1 [myrislignan]
Survival rate in mice upon acute infection (T. gondii [1]): 50%
EC50, anti-T. gondii activity (T. gondii [2]): 32.41 mg/L (≈ 86.6 µM)

C/C=C/c1cc(OC)c2c(c1)C(C)[C@@H](c1ccc3c(c1)OCO3)O2 (stereo partly drawn) [Licarin-B, 5-[(2S)-2,3-D\dihydro-7-methoxy-3β-methyl-5-[(E)-1-propenyl]benzofuran-2-yl]-1,3-benzodioxole]
MDC labelling of autophagosomes (T. gondii tachyzoites [3]; 18 μg/mL for 4, 8, or 16 h): some parasites were positive for MDC
MDC labelling of autophagosomes (T. gondii tachyzoites [3]; 18, 27, and 36 μg/mL for 8 h): autophagy was induced in T. gondii in a concentration-dependent manner
Ultrastructural changes in tachyzoites (TEM) ([4]; 4 h): slight mitochondrial swelling and a double membrane structure
Ultrastructural changes in tachyzoites (TEM) ([4]; 8 h): mitochondrial swelling, cristae disruption, vacuole formation, and an autophagy-like double membrane structure in the cytoplasm
Ultrastructural changes in tachyzoites (TEM) ([4]; 16 h): extensive clefts around the nucleus, nuclear membrane disappearance, and progressive degeneration of the parasites
Mean inhibition rate (% of control) ([5]; 200 μg/mL, T. gondii proliferation in HFFs): 99.76 ± 5.81%
Parasitophorous vacuoles (PVs) in host cells ([5]; Giemsa staining, maximum concentration safe for HFFs (licarin-B 200 μg/mL)): no parasitophorous vacuoles (PVs) in host cells
Inhibition of T. gondii tachyzoite intracellular proliferation vs control ([6]; 4.5–45 μg/mL): significantly (p < 0.01) inhibited T. gondii tachyzoite intracellular proliferation in a concentration-dependent manner
EC50 for T. gondii tachyzoite growth inhibition ([6]; intracellular proliferation in HFFs): 14.05 ± 3.96 mg/L
Parasite loads in the blood and brain, liver, and spleen tissues vs parasite control (T. gondii tachyzoites [7]): significantly (p < 0.01) reduced the parasite loads
Clinical toxicity [8]: no discernible clinical toxicity was observed
Inhibition of T. gondii invasion vs control [9]: significantly (p < 0.01) inhibited T. gondii invasion
DAPI staining of parasite nuclei [10]: diffuse fluorescent signal in the parasite nuclei
Mitochondrial membrane potential (ΔΨm) ([11]; 18 μg/mL for 4, 8, or 16 h): decreased the ΔΨm in T. gondii in a time-dependent manner
Mitochondrial membrane potential (ΔΨm) ([11]; 18, 27, or 36 μg/mL for 8 h): the ΔΨm was reduced in a dose-dependent manner
Survival rate of infected mice (T. gondii tachyzoites [12]; 25 mg/kg⋅bw intraperitoneal once daily for 15 days): 60%
Survival rate of infected mice (T. gondii tachyzoites [12]; 50 mg/kg⋅bw intraperitoneal once daily for 15 days): 90%
T. gondii survival rate ([13]; 18 μg/mL): approximately 45%
T. gondii survival rate ([13]; 36 μg/mL): ~26%
